The source of these data is publication PMC5834214 (PLoS Pathogens, 2018).

Data set [1] deals with rLCMV/eGFP. Format: cell-based, lymphocytic choriomeningitis virus.
The test system of a further data set is LCMV Z-mediated budding. Format: cell-based, lymphocytic choriomeningitis virus.
In another data set the test system is rLCMVΔGPC/eGFP. Format: cell-based, lymphocytic choriomeningitis virus.
The test system of the next data set is LASV Z-mediated budding. The data set is classed as cell-based, Lassa virus.
Data set [2] can be described thus: in vitro. To be noted: human.
Data set [3] has as its system rLCMV/eGFP. The data set is classed as cell-based, lymphocytic choriomeningitis virus. This is another data set of the same source.
Data set [4] deals with rLCMV/eGFP. As to the kind of experiment: microbe, parasite or virus in culture. To be noted: Mammarenavirus choriomeningitidis, Vero C1008, 48 h, read-out: IC50 (anti-LCMV, eGFP expression).
The subject of a further data set is r3JUNV/eGFP. Format: cell-based, Junín virus.
The test system of data set [5] is rLCMV/eGFP. The data set is described as follows: microbe, parasite or virus in culture. The note with it: Mammarenavirus choriomeningitidis, A549, 48 h.
Data set [6] concerns rLCMV/eGFP. The data set is classed as cell-based, lymphocytic choriomeningitis virus. The source holds these as a separate data set.
Data set [7] in a line: in vitro. To be noted: grivet.
In the next data set the test system is rVSV/eGFP. The data set is classed as cell-based, vesicular stomatitis Indiana virus.
In another data set the test system is rLASV/eGFP. The data set is described as follows: microbe, parasite or virus in culture. Format: cell-based, Lassa virus. The note with it: Mammarenavirus lassaense, A549, 48 h, read-out: IC50 (LASV, eGFP expression).
Another data set addresses eGFP (Aequorea victoria, UniProt P42212, F64L/H231L/S65T).
In a further data set the target is LCMV NP (Strep-NP) (Lymphocytic choriomeningitis virus, UniProt P09992).
A further data set relates to scrLCMV/ZsG-P2A-NP. The data set is classed as cell-based, lymphocytic choriomeningitis virus.
Data set [8] relates to rLCMV/eGFP. Format: cell-based, lymphocytic choriomeningitis virus. This is another data set of the same source.
[9] abbreviates: read-out: IC50 (anti-LCMV, eGFP expression).

Read-outs that look alike come from different tables or passages of the source.

Sequence of LCMV NP (Strep-NP) (P09992 whole entry): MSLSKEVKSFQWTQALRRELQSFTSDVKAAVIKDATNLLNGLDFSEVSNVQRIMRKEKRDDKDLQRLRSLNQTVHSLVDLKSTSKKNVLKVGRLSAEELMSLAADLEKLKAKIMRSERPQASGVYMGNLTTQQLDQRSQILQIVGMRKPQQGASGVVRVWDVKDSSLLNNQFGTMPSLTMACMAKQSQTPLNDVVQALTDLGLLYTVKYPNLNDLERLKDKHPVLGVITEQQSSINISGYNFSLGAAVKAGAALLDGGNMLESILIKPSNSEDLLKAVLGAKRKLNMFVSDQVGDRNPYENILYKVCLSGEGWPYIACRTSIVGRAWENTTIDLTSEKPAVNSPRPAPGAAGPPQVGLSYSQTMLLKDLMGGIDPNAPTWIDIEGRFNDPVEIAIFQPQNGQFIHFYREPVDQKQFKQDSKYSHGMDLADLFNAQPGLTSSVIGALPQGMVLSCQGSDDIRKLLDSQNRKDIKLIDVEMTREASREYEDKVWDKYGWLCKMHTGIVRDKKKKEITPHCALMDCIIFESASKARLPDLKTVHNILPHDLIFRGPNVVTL

As for `COc1ccc([C@@]23Oc4cc(OC)cc(OC)c4[C@]2(O)[C@H](O)[C@H](C(=O)N(C)C)[C@H]3c2ccccc2)cc1` [rocaglamide], the “cell entry of LCMV” value in the data set with rLCMV/eGFP [1] is “neither ouabain nor rocaglamide inhibited cell entry of LCMV”. For the same compound, in the data set on rLCMV/eGFP [1], the “number of eGFP+ cells” value is “negligible number of eGFP^+ cells”. In addition, the “LCMV Z budding efficiency” value with LCMV Z-mediated budding is on record as “caused a reduction”. In addition, the “reporter eGFP expression (virus RNA synthesis)” value with rLCMVΔGPC/eGFP is “reduced eGFP expression”. The “LASV Z budding efficiency” value in the data set on LASV Z-mediated budding is “caused a reduction”. Moreover, the CC50 in the data set “in vitro [2]” is > 1000 nM; in the data set “in vitro [7]” it was 100 nM. In the data set on rLCMV/eGFP [3], the “eGFP expression in infected cells” value is recorded as “dose-dependent rocaglamide inhibition of eGFP expression”. The IC50 in the data set with rLCMV/eGFP [4] was found to be 9.75 nM; in the data set with rLCMV/eGFP [5] (setting [9]) it was 9.51 nM; in the data set on rLASV/eGFP, 37 nM. For the same compound, the JUNV multiplication entry in the data set with r3JUNV/eGFP is on record as “strongly suppressed JUNV multiplication”. Also, the “production of infectious LCMV progeny” value in the data set with rLCMV/eGFP [6] is “reduced”. Moreover, the “Multiplication of VSV” value in the data set with rVSV/eGFP is “not significantly affected”.

With `C[C@]12CC[C@H](O)C[C@H]1CC[C@@H]1[C@@H]2CC[C@]2(C)[C@@H](c3ccc(=O)oc3)CC[C@]12O` [bufalin], the CC50 is 16.4 nM in the data set “in vitro [2]” and 73.8 nM in the data set “in vitro [7]”. Besides, the IC50 in the data set on rLCMV/eGFP [4] turned out to be 12.5 nM; in the data set with rLCMV/eGFP [5] (setting [9]) it was 1.85 nM; with rLASV/eGFP it was 1.66 nM. For the same compound, the JUNV multiplication result with r3JUNV/eGFP is reported as “strongly suppressed JUNV multiplication”.

In the case of SPTAN1, in the data set with eGFP, the “Spectral count eGFP Average” value is recorded as 0, the “Spectral count eGFP Exp. 1” value was 0 and the “Spectral count eGFP Exp. 2” value amounted to 0. Further, in the data set with LCMV NP (Strep-NP), the “Spectral count NP Average” value stood at 4, the “Spectral count NP Exp. 1” value amounted to 4 and the “Spectral count NP Exp. 2” value is given as 4.

For `C[C@@H]1O[C@@H](O[C@H]2C[C@@H](O)[C@]3(CO)[C@H]4[C@H](O)C[C@]5(C)[C@@H](C6=CC(=O)OC6)CC[C@]5(O)[C@@H]4CC[C@]3(O)C2)[C@H](O)[C@H](O)[C@H]1O` [ouabain], the “cell entry of LCMV” value in the data set on rLCMV/eGFP [1] was “neither ouabain nor rocaglamide inhibited cell entry of LCMV”. The “number of eGFP+ cells” value with rLCMV/eGFP [1] is “reduced at all time-of-addition points compared to vehicle”. The “reporter eGFP expression (virus RNA synthesis)” value in the data set with rLCMVΔGPC/eGFP is recorded as “did not affect reporter eGFP expression”. The CC50 in “in vitro [2]” came out at 28.9 nM; in the data set “in vitro [7]”, 70 nM. Also, the “eGFP expression in infected cells” value in the data set with rLCMV/eGFP [3] is reported as “strong dose-dependent inhibition of eGFP expression”. Moreover, the “eGFP expression intensity in infected cells” value in the data set on rLCMV/eGFP [3] was “did not affect eGFP expression intensity”. For the same compound, the half-maximal inhibitory concentration (IC50) with rLCMV/eGFP [4] is 18.4 nM; with rLCMV/eGFP [5] (setting [9]), 5.79 nM; in the data set on rLCMV/eGFP [5] (read-out: IC50 as log10 (converted)), 5.79 nM; in the data set on rLASV/eGFP, 9.34 nM. Besides, in the data set on scrLCMV/ZsG-P2A-NP, the “assembly de novo of extracellular infectious virus (GP-incorporation efficiency)” value is “did not inhibit assembly de novo of extracellular infectious virus”. In addition, the JUNV multiplication result with r3JUNV/eGFP is “strongly suppressed JUNV multiplication”. Further, the “production of infectious LCMV progeny” value in the data set on rLCMV/eGFP [6] is recorded as “reduced”. The “assembly de novo of extracellular infectious virus (virus titers in TCS)” value in the data set on rLCMV/eGFP [8] was “did not inhibit assembly de novo of extracellular infectious virus”. For the same compound, the “Multiplication of VSV” value in the data set with rVSV/eGFP was “not significantly affected”.

The term IC50 denotes the concentration needed to halve the response being measured.
